# pIC50: −log10 of the molar value.
# Assays:
# [1] = system: Plasmodium falciparum; assay: Antiparasitic activity against chloroquine-sensitive Plasmodium falciparum NF54 in erythrocytes by [3H]hypoxanthine uptake; type: functional, organism-based
# [2] = system: L6; assay: Cytotoxicity against L6 cells; type: cell-based; conditions: Rattus norvegicus
# [3] = system: Plasmodium falciparum; assay: Antiparasitic activity against chloroquine, pyrimethamine-resistant Plasmodium falciparum K1 in erythrocytes by [3H]hypoxanthine uptake; type: functional, organism-based
# [4] = system: Plasmodium falciparum; assay: Relative activity against Plasmodium falciparum NF54 and K1 as IC50 ratio; type: functional
Compound,pIC50 [1],pIC50 [2],pIC50 [3],Ratio IC50 [4]
O=C(Cc1ccc(Cl)cc1Cl)NCCCN1CCN(CCCNc2ccnc3cc(Cl)ccc23)CC1,8.10,4.82,7.62,0.34
O=C(CC1CCCCC1)NCCCN1CCN(CCCNc2ccnc3cc(Cl)ccc23)CC1,8.00,5.14,7.57,0.37
Cc1ccccc1C(=O)NCCCN1CCN(CCCNc2ccnc3cc(Cl)ccc23)CC1,8.00,,7.47,0.29
O=C(NCCCN1CCN(CCCNc2ccnc3cc(Cl)ccc23)CC1)c1ccc(Cl)c([N+](=O)[O-])c1,7.70,4.95,7.37,0.47
CC(=O)CCC(=O)NCCCN1CCN(CCCNc2ccnc3cc(Cl)ccc23)CC1,7.23,4.96,6.42,0.15
O=C(NCCCN1CCN(CCCNc2ccnc3cc(Cl)ccc23)CC1)C(c1ccccc1)c1ccccc1,7.60,5.03,6.97,0.24
O=C(CCCc1ccccc1)NCCCN1CCN(CCCNc2ccnc3cc(Cl)ccc23)CC1,7.77,4.96,7.21,0.28
COc1cccc(C(=O)NCCCN2CCN(CCCNc3ccnc4cc(Cl)ccc34)CC2)c1,8.00,5.03,7.55,0.36
O=C(Cc1c(Cl)cccc1Cl)NCCCN1CCN(CCCNc2ccnc3cc(Cl)ccc23)CC1,7.96,5.28,7.44,0.32
O=C(NCCCN1CCN(CCCNc2ccnc3cc(Cl)ccc23)CC1)c1cc(F)cc(F)c1,8.00,4.94,7.59,0.39
O=C(NCCCN1CCN(CCCNc2ccnc3cc(Cl)ccc23)CC1)c1ccccc1C(=O)c1ccccc1,8.00,5.49,7.77,0.59
CCCCCC(=O)NCCCN1CCN(CCCNc2ccnc3cc(Cl)ccc23)CC1,6.47,,6.05,0.38
O=C(Cc1cccc2ccccc12)NCCCN1CCN(CCCNc2ccnc3cc(Cl)ccc23)CC1,7.89,5.21,7.39,0.32
CCOc1ccc(C(=O)NCCCN2CCN(CCCNc3ccnc4cc(Cl)ccc34)CC2)cc1,8.10,5.28,7.92,0.67
CC(C)CC(=O)NCCCN1CCN(CCCNc2ccnc3cc(Cl)ccc23)CC1,7.89,,7.11,0.17
O=C(NCCCN1CCN(CCCNc2ccnc3cc(Cl)ccc23)CC1)c1cc(Cl)cc(Cl)c1,8.15,5.52,7.92,0.58
CCN(CC)CCCC(C)Nc1ccnc2cc(Cl)ccc12 (stereo not given) [CHLOROQUINE],,5.11,,
O=C(CCCCc1ccccc1)NCCCN1CCN(CCCNc2ccnc3cc(Cl)ccc23)CC1,7.92,5.03,7.27,0.22
CC(C)=CC(=O)NCCCN1CCN(CCCNc2ccnc3cc(Cl)ccc23)CC1,7.64,4.52,7.19,0.36
CCc1ccc(C(=O)NCCCN2CCN(CCCNc3ccnc4cc(Cl)ccc34)CC2)cc1,8.10,5.41,7.89,0.62
O=C(NCCCN1CCN(CCCNc2ccnc3cc(Cl)ccc23)CC1)c1ccc(C(=O)c2ccccc2)cc1,5.81,,5.51,0.5
COc1ccc(C(=O)NCCCN2CCN(CCCNc3ccnc4cc(Cl)ccc34)CC2)cc1OC,7.44,,6.35,0.08
O=C(CCCC1CCCCC1)NCCCN1CCN(CCCNc2ccnc3cc(Cl)ccc23)CC1,6.81,,6.57,0.57
O=C(NCCCN1CCN(CCCNc2ccnc3cc(Cl)ccc23)CC1)c1cccc(OC(F)(F)F)c1,7.92,5.07,7.82,0.8
O=C(NCCCN1CCN(CCCNc2ccnc3cc(Cl)ccc23)CC1)c1ccc(Oc2ccccc2)cc1,8.05,5.85,7.82,0.6
O=C(CCCOc1ccccc1)NCCCN1CCN(CCCNc2ccnc3cc(Cl)ccc23)CC1,7.92,5.03,7.14,0.16
O=C(CCCc1c[nH]c2ccccc12)NCCCN1CCN(CCCNc2ccnc3cc(Cl)ccc23)CC1,7.82,5.19,7.16,0.22
O=C(NCCCN1CCN(CCCNc2ccnc3cc(Cl)ccc23)CC1)c1ccc(F)c(F)c1,8.15,5.00,7.89,0.54
O=C(NCCCN1CCN(CCCNc2ccnc3cc(Cl)ccc23)CC1)c1cccc(C(F)(F)F)c1,7.43,4.52,7.28,0.68
NC(=O)c1ccc(C(=O)NCCCN2CCN(CCCNc3ccnc4cc(Cl)ccc34)CC2)cc1,7.08,,6.60,0.33

# From ChEMBL document CHEMBL1147171, “Synthesis and antiplasmodial activity of new N-[3-(4-{3-[(7-chloroquinolin-4-yl)amino]propyl}piperazin-1-yl)propyl]carboxamides” (Bioorg Med Chem, 2007)
